From ChEMBL document CHEMBL1201862, “PubChem BioAssay data set” (2004)
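Cultured in 96-well plates, cells were exposed to test compound for 48 hours across five concentrations. Abbreviation: GI50, concentration required for 50% inhibition of growth.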 Active and inactive are the calls of the source. Cut-off read from the data, not from the text of the source: active = GI50 up to about 1.1 µM and inactive = higher.

Experiments:
Assay in all cases: NCI-60 cell line screen, 48 h
OVCAR-4 = system: OVCAR-4
OVCAR-3 = system: OVCAR-3
Hs-578T = system: Hs-578T
NCI-H460 = system: NCI-H460
T47D = system: T47D
TK-10 = system: TK-10
NCI-H23 = system: NCI-H23
786-0 = system: 786-0
M14 = system: M14
SW-620 = system: SW-620
RPMI-8226 = system: RPMI-8226
MDA-MB-435 = system: MDA-MB-435
MCF7 = system: MCF7
MDA-MB-231 = system: MDA-MB-231
Malme-3M = system: Malme-3M
HOP-62 = system: HOP-62
HCT-116 = system: HCT-116
SN12C = system: SN12C
A498 = system: A498
SK-OV-3 = system: SK-OV-3
SNB-19 = system: SNB-19
BT-549 = system: BT-549
MDA-N = system: MDA-N
DU-145 = system: DU-145
RXF 393 = system: RXF 393
SF-539 = system: SF-539
SK-MEL-28 = system: SK-MEL-28
HOP-92 = system: HOP-92
NCI/ADR-RES = system: NCI/ADR-RES
LOX IMVI = system: LOX IMVI
SF-295 = system: SF-295
HT-29 = system: HT-29
COLO 205 = system: COLO 205
MOLT-4 = system: MOLT-4
UACC-257 = system: UACC-257
ACHN = system: ACHN
UACC-62 = system: UACC-62
OVCAR-8 = system: OVCAR-8
U-251 = system: U-251
NCI-H522 = system: NCI-H522
KM12 = system: KM12
PC-3 = system: PC-3
SK-MEL-2 = system: SK-MEL-2
EKVX = system: EKVX
HCT-15 = system: HCT-15
K562 = system: K562
OVCAR-5 = system: OVCAR-5
A549 = system: A549
SK-MEL-5 = system: SK-MEL-5
CAKI-1 = system: CAKI-1
SR = system: SR
IGROV-1 = system: IGROV-1
SNB-75 = system: SNB-75
SF-268 = system: SF-268
NCI-H226 = system: NCI-H226
UO-31 = system: UO-31
HL-60 = system: HL-60
CCRF-CEM = system: CCRF-CEM

## CCOC(=O)c1cnc(N(C)C)nc1SC(=N)N
OVCAR-4
  GI50: > 100 µM (inactive)
OVCAR-3
  GI50: > 100 µM (inactive)
Hs-578T
  GI50: > 100 µM (inactive)
NCI-H460
  GI50: > 100 µM (inactive)
T47D
  GI50: > 100 µM (inactive)
TK-10
  GI50: > 100 µM (inactive)
NCI-H23
  GI50: > 100 µM (inactive)
786-0
  GI50: > 100 µM (inactive)
M14
  GI50: > 100 µM (inactive)
SW-620
  GI50: > 100 µM (inactive)
RPMI-8226
  GI50: > 100 µM (inactive)
MDA-MB-435
  GI50: > 100 µM (inactive)
MCF7
  GI50: > 100 µM (inactive)
MDA-MB-231
  GI50: > 100 µM (inactive)
Malme-3M
  GI50: > 100 µM (inactive)
HOP-62
  GI50: > 100 µM (inactive)
HCT-116
  GI50: > 100 µM (inactive)
SN12C
  GI50: > 100 µM (inactive)
A498
  GI50: > 100 µM (inactive)
SK-OV-3
  GI50: > 100 µM (inactive)
SNB-19
  GI50: > 100 µM (inactive)
BT-549
  GI50: > 100 µM (inactive)
MDA-N
  GI50: > 100 µM (inactive)
DU-145
  GI50: > 100 µM (inactive)
RXF 393
  GI50: > 100 µM (inactive)
SF-539
  GI50: > 100 µM (inactive)
SK-MEL-28
  GI50: > 100 µM (inactive)
HOP-92
  GI50: > 100 µM (inactive)
NCI/ADR-RES
  GI50: > 100 µM (inactive)
LOX IMVI
  GI50: > 100 µM (inactive)
SF-295
  GI50: > 100 µM (inactive)
HT-29
  GI50: > 100 µM (inactive)
COLO 205
  GI50: > 100 µM (inactive)
MOLT-4
  GI50: 49.2 µM (inactive)
UACC-257
  GI50: > 100 µM (inactive)
ACHN
  GI50: > 100 µM (inactive)
UACC-62
  GI50: > 100 µM (inactive)
OVCAR-8
  GI50: > 100 µM (inactive)
U-251
  GI50: > 100 µM (inactive)
NCI-H522
  GI50: > 100 µM (inactive)
KM12
  GI50: > 100 µM (inactive)
PC-3
  GI50: > 100 µM (inactive)
SK-MEL-2
  GI50: > 100 µM (inactive)
EKVX
  GI50: > 100 µM (inactive)
HCT-15
  GI50: > 100 µM
K562
  GI50: > 100 µM (inactive)
OVCAR-5
  GI50: > 100 µM (inactive)
A549
  GI50: > 100 µM (inactive)
SK-MEL-5
  GI50: > 100 µM (inactive)
CAKI-1
  GI50: > 100 µM (inactive)
SR
  GI50: 35.6 µM (inactive)
IGROV-1
  GI50: > 100 µM (inactive)
SNB-75
  GI50: > 100 µM (inactive)
SF-268
  GI50: > 100 µM (inactive)
NCI-H226
  GI50: > 100 µM (inactive)

## NCC(O)CSP(=O)(O)O (configuration not stated)
OVCAR-4
  GI50: > 100 µM (inactive)
OVCAR-3
  GI50: > 100 µM (inactive)
Hs-578T
  GI50: > 100 µM (inactive)
NCI-H460
  GI50: > 100 µM (inactive)
T47D
  GI50: > 100 µM (inactive)
TK-10
  GI50: > 100 µM (inactive)
NCI-H23
  GI50: > 100 µM (inactive)
786-0
  GI50: > 100 µM (inactive)
M14
  GI50: > 100 µM (inactive)
SW-620
  GI50: > 100 µM (inactive)
UO-31
  GI50: > 100 µM (inactive)
HL-60
  GI50: > 100 µM (inactive)
RPMI-8226
  GI50: > 100 µM (inactive)
MDA-MB-435
  GI50: > 100 µM (inactive)
MCF7
  GI50: > 100 µM (inactive)
MDA-MB-231
  GI50: > 100 µM (inactive)
Malme-3M
  GI50: > 100 µM (inactive)
HOP-62
  GI50: > 100 µM (inactive)
HCT-116
  GI50: > 100 µM (inactive)
SN12C
  GI50: > 100 µM (inactive)
A498
  GI50: > 100 µM (inactive)
SK-OV-3
  GI50: > 100 µM (inactive)
SNB-19
  GI50: > 100 µM (inactive)
BT-549
  GI50: > 100 µM (inactive)
MDA-N
  GI50: > 100 µM (inactive)
DU-145
  GI50: > 100 µM (inactive)
RXF 393
  GI50: > 100 µM (inactive)
SK-MEL-28
  GI50: > 100 µM (inactive)
HOP-92
  GI50: > 100 µM (inactive)
NCI/ADR-RES
  GI50: > 100 µM (inactive)
LOX IMVI
  GI50: > 100 µM (inactive)
SF-295
  GI50: > 100 µM (inactive)
HT-29
  GI50: > 100 µM (inactive)
COLO 205
  GI50: > 100 µM (inactive)
CCRF-CEM
  GI50: > 100 µM (inactive)
MOLT-4
  GI50: > 100 µM (inactive)
UACC-257
  GI50: > 100 µM (inactive)
ACHN
  GI50: > 100 µM (inactive)
UACC-62
  GI50: > 100 µM (inactive)
OVCAR-8
  GI50: > 100 µM (inactive)
U-251
  GI50: > 100 µM (inactive)
NCI-H522
  GI50: > 100 µM (inactive)
KM12
  GI50: > 100 µM (inactive)
PC-3
  GI50: > 100 µM (inactive)
SK-MEL-2
  GI50: > 100 µM (inactive)
EKVX
  GI50: > 100 µM (inactive)
HCT-15
  GI50: > 100 µM
K562
  GI50: > 100 µM (inactive)
OVCAR-5
  GI50: > 100 µM (inactive)
A549
  GI50: > 100 µM (inactive)
SK-MEL-5
  GI50: > 100 µM (inactive)
CAKI-1
  GI50: > 100 µM (inactive)
SR
  GI50: > 100 µM (inactive)
IGROV-1
  GI50: > 100 µM (inactive)
SNB-75
  GI50: > 100 µM (inactive)
SF-268
  GI50: > 100 µM (inactive)
NCI-H226
  GI50: > 100 µM (inactive)
